55 compounds from patent US20250099448A1, “HETEROCYCLIC COMPOUNDS” (Hoffmann-La Roche Inc., priority 2022, published 2025) can be followed below.

This test addresses T1, MAGL protein (Homo sapiens, UniProt Q99685).
T1 sequence (Q99685 1-303): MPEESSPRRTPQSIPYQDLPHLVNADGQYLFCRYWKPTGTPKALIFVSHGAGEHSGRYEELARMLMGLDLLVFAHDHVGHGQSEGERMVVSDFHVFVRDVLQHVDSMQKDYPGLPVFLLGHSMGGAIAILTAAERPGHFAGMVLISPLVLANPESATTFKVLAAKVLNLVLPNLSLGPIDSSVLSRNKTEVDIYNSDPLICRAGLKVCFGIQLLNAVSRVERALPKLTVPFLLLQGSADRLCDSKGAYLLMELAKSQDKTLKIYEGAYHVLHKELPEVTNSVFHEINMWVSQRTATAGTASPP
Description: 2-AG assay: MAGL inhibitory activity by hydrolysis of 2-arachidonoylglycerol to arachidonic acid, followed by mass spectrometry. The note with it: 8 μM 2-arachidonoylglycerol, 15 min preincubation, 30 min reaction at RT, RapidFire MS readout. The format is biochemical. Put shortly: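 MAGL was preincubated 15 min at RT with compound (12.5 to […], 3-fold steps) in 50 mM TRIS, 1 mM EDTA, 0.01% Tween-20, 2.5% DMSO. The reaction ran 30 min at RT with 8 μM 2-AG. Arachidonic acid was quantified by RapidFire SPE-MS/MS against a d8-arachidonic acid internal standard.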
As for `O=C(N1CC2(CC(Cn3ccc(C(F)(F)F)n3)C2)C1)N1CC2(CC(c3nc(C4CC4)n[nH]3)C2)C1` [compound 844], it took 0.71 nM to reach half-maximal inhibition (IC50).
`O=C(N1CC2(CC(c3nc(C4CC4)n[nH]3)C2)C1)N1CC2(CC(C(F)c3ccc(C(F)(F)F)nc3)C2)C1` (stereo not shown) [compound 845]: the IC50 (commonly the concentration needed to halve the response being measured) turned out to be 9.83 nM.
The same measure for `Cc1cc(C2CC2)n(CC2CC3(C2)CN(C(=O)N2CC4(CC(c5nc(C6CC6)n[nH]5)C4)C2)C3)n1` [compound 846]: 0.78 nM; for `Cc1cc(C2CC2)nn1CC1CC2(C1)CN(C(=O)N1CC3(CC(c4nc(C5CC5)n[nH]4)C3)C1)C2` [compound 847]: 0.53 nM; for `N=S(=O)(c1cccc(OC2CC3(C2)CN(C(=O)N2CC4(CC(c5nc(C6CC6)n[nH]5)C4)C2)C3)c1)C(F)(F)F` (stereo not shown) [compound 848]: 0.67 nM.
As to `N=S(=O)(c1ccc(CC2CC3(C2)CN(C(=O)N2CC4(CC(c5nc(C6CC6)n[nH]5)C4)C2)C3)c(F)c1)C(F)(F)F` (stereo not shown) [compound 849], the IC50 amounted to 0.07 nM.
The same measure for `O=C(N1CC2(CC(c3nc(C(F)(F)F)n[nH]3)C2)C1)N1CC2(CN(Cc3ccc(S(=O)(=O)C(F)(F)F)cc3)C2)C1` [compound 850]: 13.7 nM; for `O=C(N1CC(c2ccc(-c3cc(C(F)(F)F)n[nH]3)cc2)C1)N1CC2(CC(c3nnc(C4CC4)[nH]3)C2)C1` [compound 851]: 0.23 nM; for `O=C(N1CC2(CC(Cc3ccc(OC(F)(F)F)cc3)C2)C1)N1CC2(CC(c3nc(C4CC4)n[nH]3)C2)C1` [compound 857]: 0.02 nM.
Take `O=C(N1CC2(CC(Cc3ccc(S(=O)(=O)C4CC4)cc3)C2)C1)N1CC2(CC(c3nc(C4CC4)n[nH]3)C2)C1` [compound 859]: the midpoint of inhibition, the IC50, lay at 0.19 nM.
With `O=C(N1CC2(CC(Cn3cnc(C4(C(F)(F)F)CC4)c3)C2)C1)N1CC2(CC(c3nc(C4CC4)n[nH]3)C2)C1` [compound 860] the figure was 2.9 nM.
The same measure for `O=C(N1CC2(CC(Cc3nnc(C4(C(F)(F)F)CC4)o3)C2)C1)N1CC2(CC(c3nnc(C4CC4)[nH]3)C2)C1` [compound 862]: 1.57 nM; for `O=C(N1CC(C23CC(Cc4ccc(C(F)(F)F)nc4)(C2)C3)C1)N1CC2(CC(c3nc(C4CC4)n[nH]3)C2)C1` [compound 866]: 19.1 nM.
The same measure for `N#Cc1cc(CC2CC3(C2)CN(C(=O)N2CC4(CC(c5nc(C6CC6)n[nH]5)C4)C2)C3)cc(C(F)(F)F)c1` [compound 867]: 0.1 nM.
In the case of `CCc1ccc(C(=O)N2CCN(C(=O)N3CC4(CC(c5nnc(C6CC6)[nH]5)C4)C3)CC2)cc1` [compound 869], the IC50 was 115 nM.
As for `O=C(N1CC(c2ccc(-n3ccc(C(F)(F)F)n3)cc2)C1)N1CC2(CC(c3nnc(C4CC4)[nH]3)C2)C1` [compound 873], the IC50 came to 0.67 nM.
With `Cc1c(C(F)(F)F)n[nH]c1CN1CC2(C1)CN(C(=O)N1CC3(CC(c4nnc(C5CC5)[nH]4)C3)C1)C2` [compound 874] the figure was 2.8 nM; with `O=C(N1CC(c2ccc(-n3nc(C4CC4)cc3C(F)F)cc2)C1)N1CC2(CC(c3nnc(C4CC4)[nH]3)C2)C1` [compound 875], 0.33 nM; with `Cc1nc(C)c(CN2CC3(C2)CN(C(=O)N2CC4(CC(c5nnc(C6CC6)[nH]5)C4)C2)C3)s1` [compound 877], 15.2 nM.
With `N#Cc1ccc(CN2CC3(C2)CN(C(=O)N2CC4(CC(c5nc(C6CC6)n[nH]5)C4)C2)C3)c(C(F)(F)F)c1` [compound 882] the figure was 1.82 nM; with `Cc1cc(C(F)F)n(CC2CC3(C2)CN(C(=O)N2CC4(CC(c5nc(C6CC6)n[nH]5)C4)C2)C3)n1` [compound 883], 0.39 nM; with `CP(C)(=O)c1cc(CC2CC3(C2)CN(C(=O)N2CC4(CC(c5nnc(C6CC6)[nH]5)C4)C2)C3)cc(C(F)(F)F)c1` [compound 884], 1.47 nM.
Compound `CC(C)(C)c1noc(CN2CC3(C2)CN(C(=O)N2CC4(CC(c5nnc(C6CC6)[nH]5)C4)C2)C3)n1` [compound 886] showed an IC50 of 6.38 nM.
The same measure for `O=C(N1CC2(CC(c3nnc(C4CC4)[nH]3)C2)C1)N1CC2(CN(Cc3cnn4ccccc34)C2)C1` [compound 887]: 5.98 nM; for `O=C(N1CC2(CC(c3nnc(C4CC4)[nH]3)C2)C1)N1CC2(CN(Cc3nc(-c4ccccc4)no3)C2)C1` [compound 888]: 2.85 nM.
The same measure for `CS(=O)(=O)c1cc(C(F)(F)F)ccc1CN1CC2(C1)CN(C(=O)N1CC3(CC(c4nc(C5CC5)n[nH]4)C3)C1)C2` [compound 889]: 2.74 nM; for `CP(C)(=O)c1ccc(CC2CC3(C2)CN(C(=O)N2CC4(CC(c5nnc(C6CC6)[nH]5)C4)C2)C3)c(C(F)(F)F)c1` [compound 890]: 1.22 nM; for `COc1cc(Cl)ccc1CN(C)CC1CN(C(=O)N2CC3(CC(c4nnc(C5CC5)[nH]4)C3)C2)C1` [compound 894]: 77.5 nM.
`Cc1nc(CN2CC3(C2)CN(C(=O)N2CC4(CC(c5nnc(C6CC6)[nH]5)C4)C2)C3)cs1` [compound 896]: the IC50 stood at 209 nM.
With `Cc1c(CN2CC3(C2)CN(C(=O)N2CC4(CC(c5nnc(C6CC6)[nH]5)C4)C2)C3)cnn1C` [compound 897] the figure was 308 nM; with `Cc1nc(C)c(CN2CC3(C2)CN(C(=O)N2CC4(CC(c5nnc(C6CC6)[nH]5)C4)C2)C3)o1` [compound 898], 218 nM; with `O=C(N1CC2(CC(c3nc(C4CC4)n[nH]3)C2)C1)N1CC2(CN(Cc3cc(C4CC4)n[nH]3)C2)C1` [compound 900], 25.3 nM.
Take `Cn1nccc1CN1CC2(C1)CN(C(=O)N1CC3(CC(c4nc(C5CC5)n[nH]4)C3)C1)C2` [compound 901]: it took 136 nM to reach half-maximal inhibition (IC50).
In the case of `O=C(N1CCC(OCc2ccc(OC(F)(F)F)cc2F)CC1)N1CC2(CC(c3nc(C4CC4)n[nH]3)C2)C1` [compound 905], 5.92 nM corresponded to half-maximal inhibition (IC50).
Compound `CS(=O)(=O)c1ccccc1C12CC(C3CN(C(=O)N4CC5(CC(c6nc(C7CC7)n[nH]6)C5)C4)C3)(C1)C2` [compound 909] showed an IC50 of 0.51 nM.
Consider `COC(=O)c1ccc(CC2CC3(C2)CN(C(=O)N2CC4(CC(c5nc(C6CC6)n[nH]5)C4)C2)C3)cc1OC(F)(F)F` [compound 911], for which the IC50 came out at 0.03 nM.
With `COC(=O)c1cc(CC2CC3(C2)CN(C(=O)N2CC4(CC(c5nc(C6CC6)n[nH]5)C4)C2)C3)ccc1OC(F)(F)F` [compound 912] the figure was 0.07 nM.
`NC(=O)c1ccc(CC2CC3(C2)CN(C(=O)N2CC4(CC(c5nc(C6CC6)n[nH]5)C4)C2)C3)cc1OC(F)(F)F` [compound 913] displayed an IC50 of 0.44 nM.
Compound `NC(=O)c1cc(CC2CC3(C2)CN(C(=O)N2CC4(CC(c5nc(C6CC6)n[nH]5)C4)C2)C3)ccc1OC(F)(F)F` [compound 914] displayed an IC50 of 0.27 nM.
Compound `CP(C)(=O)c1ccc(CC2CC3(C2)CN(C(=O)N2CC4(CC(c5nnc(C6CC6)[nH]5)C4)C2)C3)cc1` [compound 926] came in with an IC50 of 6.58 nM.
The same measure for `O=C(N1CC2(CCC(Cc3ccc(C(F)(F)F)cn3)C2)C1)N1CC2(CC(c3nc(C4(O)CC4)n[nH]3)C2)C1` (stereo not shown) [compound 927]: 2.51 nM; for `O=C(N1CC(C23CC(Cc4nnc(C5CC5)o4)(C2)C3)C1)N1CC2(CC(c3nc(C4CC4)n[nH]3)C2)C1` [compound 928]: 2.53 nM; for `O=C(N1CC2(CCC(Cc3ncc(F)cc3F)C2)C1)N1CC2(CC(c3nc(C4(O)CC4)n[nH]3)C2)C1` (stereo not shown) [compound 929]: 3.85 nM.
The compound `O=C(N1CC(c2ccc(-n3cnc(C(F)(F)F)n3)cc2)C1)N1CC2(CC(c3nnc(C4CC4)[nH]3)C2)C1` [compound 930] came in with an IC50 of 0.39 nM.
`O=C(N1CC(c2ccc(-n3cnc(C4CC4)n3)cc2)C1)N1CC2(CC(c3nnc(C4CC4)[nH]3)C2)C1` [compound 934] came in with an IC50 of 4.44 nM.
The same measure for `O=C(N1CC2(CC(c3nnc(C4CC4)[nH]3)C2)C1)N1CC2(C1)CN(c1cncc(F)c1)C2` [compound 936]: 138 nM; for `O=C(N1CC(c2ccc(N3CC4(CCCC4)C3)nc2)C1)N1CC2(CC(c3nc(C4(O)CC4)n[nH]3)C2)C1` [compound 937]: 1.58 nM.
With `O=C(N1CC2(CC(c3nnc(C4CC4)[nH]3)C2)C1)N1CC2(CC(c3ccc(C(F)(F)F)cc3F)C2)C1` [compound 938] the figure was 0.29 nM.
`CS(=O)(=O)c1ccc(C2CC3(C2)CN(C(=O)N2CC4(CC(c5nnc(C6CC6)[nH]5)C4)C2)C3)cc1` [compound 939] showed an IC50 of 3.41 nM.
For `O=C(N1CC2(CC(c3ccc(C(F)(F)F)cc3)C2)C1)N1CC2(CC(c3nnc(C4CC4)[nH]3)C2)C1` [compound 940], it took 0.58 nM to reach half-maximal inhibition (IC50).
`O=C(N1CC(C23CC(COc4ccc(C(F)(F)F)cn4)(C2)C3)C1)N1CC2(CC(c3nc(C4CC4)n[nH]3)C2)C1` [compound 941] yielded an IC50 of 0.04 nM.
For `O=C(N1CC(C23CC(COc4cc(C(F)(F)F)ccn4)(C2)C3)C1)N1CC2(CC(c3nc(C4CC4)n[nH]3)C2)C1` [compound 942], 1.32 nM corresponded to half-maximal inhibition (IC50).
On to `COc1nc(C(F)(F)F)cnc1CC1CC2(C1)CN(C(=O)N1CC3(CC(c4nc(C5CC5)n[nH]4)C3)C1)C2` [compound 943], for which the IC50 amounted to 0.09 nM.
The same measure for `O=C(N1CC2(CC(c3nc(C4CC4)n[nH]3)C2)C1)N1CC2(CC(C(F)(F)c3cnc(C(F)(F)F)cn3)C2)C1` [compound 944]: 0.96 nM; for `O=C(N1CC2(CC(Cc3cc(C4(C(F)(F)F)CC4)[nH]n3)C2)C1)N1CC2(CC(c3nc(C4CC4)n[nH]3)C2)C1` [compound 945]: 0.07 nM.
